Converted amounts (≈) assume the structure as drawn.
System: IgG fraction of anti-ampicillin antiserum (antibodies raised against the hapten-BSA immunogen of Example 2)
Settings: for % CR, Assay 1 / % CR, Assay 2 / % CR, Assay 3: % CR = IC50amp/IC50pen x 100; for IC50, Assay 1 / IC50, Assay 2 / IC50, Assay 3: concentration causing 50% displacement of signal, standards in TBST, ampicillin-HRP conjugate; for IC50, Mean Results / % CR, Mean Results: mean of Assays 1-3; for % CR, Mean Results: relative to 100% for ampicillin
Method: An aqueous solution of the immunogen of Example 2 was formulated with Freund's Complete Adjuvant (FCA) to form an emulsion consisting of 2 mg/ml immunogen in 50% (v/v) FCA. Three sheep were immunised with this emulsion, 0.25 ml being subcutaneously injected at each of 4 sites in the flank of each animal. Subsequent immunisations (boosts) contained 1 mg/ml immunogen emulsified in 50% (v/v) Freund's Incomplete Adjuvant (FIA) and were administered in the same manner at monthly intervals for 1 year. Blood sampling took place 7 to 14 days after each boost. Each sample was processed to produce antiserum which was further purified by caprylic acid and ammonium sulfate precipitation to yield an immunoglobulin G (IgG) fraction. The IgG fraction was evaluated by competitive ELISA, microtiter plate assay, as described below.
Serial dilutions of the IgG fraction of each antiserum to be tested (prepared in accordance with Example 4) were prepared in 10 mM Tris, pH 8.5. The wells of an enhanced binding 96 well polystyrene microtiter plate were coated with these dilutions (as shown in FIG. 2) by incubation at 37° C. for 2 hours (125 μl/well). The plate was washed 4 times with Tris buffered saline (pH7.4) containing Tween (Trade Mark) 20 (TBST) and tapped dry. […] 50 μl of TBST was added to the remaining (control) wells. […] The plate was incubated at 37° C. for 2 hours. The excess unbound conjugate was removed by washing 6 times over a 10 minute period with TBST. 125 μl of tetramethylbenzidine (TMB) substrate solution was added to each well of the plate, which was then incubated for 15 to 20 minutes, in the dark, at room temperature. The reaction was terminated by addition of 125 μl 0.2M H2SO4 to each well. The absorbance was then measured at 450 nm using a microtiter plate reader.
Standard solutions of benzylpenicillin (penicillin G-PenG), amoxycillin (Amox), cloxacillin (Clox), dicloxacillin (Diclox) and oxacillin (Oxa) were prepared in TBST at 0, 1, 5, 10, 50, 100, 200 and 500 ng/ml.

Compound | % CR, Assay 1 | IC50, Assay 1 | % CR, Assay 2 | IC50, Assay 2 | % CR, Assay 3 | IC50, Assay 3 | IC50, Mean Results | % CR, Mean Results
CC1(C)SC2C(NC(=O)C(N)c3ccc(O)cc3)C(=O)N2C1C(=O)O (stereo not drawn) [Amox, amoxycillin] | 94% | 1.8 ng/mL (≈ 4.93 nM) | 83% | 3.0 ng/mL (≈ 8.21 nM) | 83% | 3.0 ng/mL (≈ 8.21 nM) | 2.6 ng/mL (≈ 7.12 nM) | 87%
Cc1onc(-c2ccccc2Cl)c1C(=O)N[C@@H]1C(=O)N2[C@@H]1SC(C)(C)[C@@H]2C(=O)O [Cloxa, cloxacillin] | 50% | 3.4 ng/mL (≈ 7.8 nM) | 43% | 5.8 ng/mL (≈ 13.3 nM) | 43% | 5.8 ng/mL (≈ 13.3 nM) | 5 ng/mL (≈ 11.5 nM) | 45%
Cc1onc(-c2c(Cl)cccc2Cl)c1C(=O)N[C@@H]1C(=O)N2[C@@H]1SC(C)(C)[C@@H]2C(=O)O [Dicloxa, dicloxacillin] | 45% | 3.8 ng/mL (≈ 8.08 nM) | 42% | 6.0 ng/mL (≈ 12.8 nM) | 51% | 4.9 ng/mL (≈ 10.4 nM) | 4.9 ng/mL (≈ 10.4 nM) | 46%
CC1(C)S[C@@H]2[C@H](NC(=O)[C@H](N)c3ccccc3)C(=O)N2[C@H]1C(=O)O [Amp, ampicillin] | 100% | 1.7 ng/mL (≈ 4.87 nM) | 100% | 2.5 ng/mL (≈ 7.15 nM) | 100% | 2.5 ng/mL (≈ 7.15 nM) | 2.2 ng/mL (≈ 6.3 nM) | 100%
CC1(C)S[C@@H]2[C@H](NC(=O)Cc3ccccc3)C(=O)N2[C@H]1C(=O)O [PenG, benzylpenicillin] | 63% | 2.7 ng/mL (≈ 8.07 nM) | 78% | 3.2 ng/mL (≈ 9.57 nM) | 74% | 3.4 ng/mL (≈ 10.2 nM) | 3.1 ng/mL (≈ 9.27 nM) | 72%
Cc1onc(-c2ccccc2)c1C(=O)N[C@@H]1C(=O)N2[C@@H]1SC(C)(C)[C@@H]2C(=O)O [Oxa, oxacillin] | 42.5% | 4.0 ng/mL (≈ 9.96 nM) | 36% | 7.0 ng/mL (≈ 17.4 nM) | 38% | 6.6 ng/mL (≈ 16.4 nM) | 5.9 ng/mL (≈ 14.7 nM) | 39%
